Like-named read-outs stand apart in the source and are kept apart here.
What was measured:
[1] = test system: HCV sub-genomic replicon (1377/NS3-3') in HuH-7 hepatoma cells (GS4.3); assay: Quantitation by ELISA of NPTII in the HCV sub-genomic replicon, GS4.3; format: cell-based, hepatitis C virus (HCV); settings: GS4.3 cells, 72 h incubation, NPTII ELISA, read-out: Replicon EC50
Description: The HCV sub-genomic replicon (1377/NS3-3′, accession No. AJ242652), stably maintained in HuH-7 hepatoma cells, was created by Lohmann et al. Science 285: 110-113 (1999). The replicon-containing cell culture, designated GS4.3, was obtained from Dr. Christoph Seeger of the Institute for Cancer Research, Fox Chase Cancer Center, Philadelphia, Pa.
GS4.3 cells were maintained at 37° C., 5% CO2, in DMEM (Gibco 11965-092) supplemented with L-glutamine 200 mM (100×) (Gibco25030-081), non-essential amino acids (NEAA) (Biowhittaker 13-114E), heat-inactivated (HI) Fetal Bovine Serum (FBS) (Hyclone SH3007.03) and 750 μg/mL geneticin (G418)(Gibco 10131-035). Cells were sub-divided 1:3 or 4 every 2-3 days.
24 h prior to the assay, GS4.3 cells were collected, counted, and plated in 96-well plates (Costar 3585) at 7500 cells/well in 100 μL standard maintenance medium (above) and incubated in the conditions above. To initiate the assay, culture medium was removed, cells were washed once with PBS (Gibco 10010-023) and 90 μl Assay Medium (DMEM, L-glutamine, NEAA, 10% HI FBS, no G418) was added. Inhibitors were made as a 10× stock in Assay Medium, (3-fold dilutions from 10 μM to 56 pM final concentration, final DMSO concentration 1%), 10 μL were added to duplicate wells, plates were rocked to mix, and incubated as above for 72 h.
An NPTII Elisa kit was obtained from AGDIA, Inc. (Compound direct ELISA test system for Neomycin Phosphotransferase II, PSP 73000/4800). Manufacturer's instructions were followed, with some modifications. 10×PEB-1 lysis buffer was made up to include 500 μM PMSF (Sigma P7626, 50 mM stock in isopropanol). After 72 h incubation, cells were washed once with PBS and 150 μL PEB-1 with PMSF was added per well. Plates were agitated vigorously for 15 minutes, room temperature, then frozen at −70° C. Plates were thawed, lysates were mixed thoroughly, and 100 μl were applied to an NPTII Elisa plate. A standard curve was made. Lysate from DMSO-treated control cells was pooled, serially diluted with PEB-1 with PMSF, and applied to duplicate wells of the ELISA plate, in a range of initial lysate amount of 150 μL-2.5 μL. In addition, 100 μL buffer alone was applied in duplicate as a blank. Plates were sealed and gently agitated at room temperature for 2 h. Following capture incubation, the plates were washed 5×300 μL with PBS-T (0.5% Tween-20, PBS-T was supplied in the ELISA kit). For detection, a 1× dilution of enzyme conjugate diluent MRS-2 (5×) was made in PBS-T, into which 1:100 dilutions of enzyme conjugates A and B were added, as per instructions. Plates were resealed, and incubated with agitation, covered, room temperature, for 2 h. The washing was then repeated and 100 μL of room temperature TMB substrate was added. After approximately 30 minutes incubation (room temperature, agitation, covered), the reaction was stopped with 50 μL 3M sulfuric acid. Plates were read at 450 nm on a Molecular Devices Versamax plate reader.
Inhibitor effect was expressed as a percentage of DMSO-treated control signal, and inhibition curves were calculated using a 4-parameter equation: y=A+((B−A)/(1+((C/x)^D))), where C is half-maximal activity or EC50.

[2] = biological target: T1, NS3/NS4A-2 (full-length HCV NS3 protease complexed with NS4A-2) (Hepatitis C virus genotype 1a, UniProt P27958); assay: NS3 inhibition assay (NS3-NS4 protease assay); format: biochemical
T1 construct: Recombinant E. coli or Baculovirus full-length NS3; host or cells: E. coli or baculovirus (insect cells)
T1 sequence (P27958 1027-1657, one chain of several): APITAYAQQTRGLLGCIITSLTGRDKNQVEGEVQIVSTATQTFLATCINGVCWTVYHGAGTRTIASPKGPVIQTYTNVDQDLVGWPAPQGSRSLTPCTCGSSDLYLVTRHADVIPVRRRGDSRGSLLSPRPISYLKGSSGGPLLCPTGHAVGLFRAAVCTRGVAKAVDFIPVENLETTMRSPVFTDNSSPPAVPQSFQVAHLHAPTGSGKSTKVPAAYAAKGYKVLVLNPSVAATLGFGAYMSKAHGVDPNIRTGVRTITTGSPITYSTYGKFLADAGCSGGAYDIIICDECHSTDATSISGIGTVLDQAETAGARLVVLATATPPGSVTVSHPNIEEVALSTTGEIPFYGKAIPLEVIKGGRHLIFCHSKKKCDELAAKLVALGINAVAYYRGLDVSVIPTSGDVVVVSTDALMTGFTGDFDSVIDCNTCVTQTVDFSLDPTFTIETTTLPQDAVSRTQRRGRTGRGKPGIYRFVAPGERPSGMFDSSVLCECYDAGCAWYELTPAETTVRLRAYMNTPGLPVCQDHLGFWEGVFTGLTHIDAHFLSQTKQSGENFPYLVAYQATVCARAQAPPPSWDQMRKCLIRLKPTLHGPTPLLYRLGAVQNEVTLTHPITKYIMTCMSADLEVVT
Description: Recombinant E. coli or Baculovirus full-length NS3 was diluted to 3.33 μM with assay buffer and transferred material to an eppendorf tube and place in water bath in 4° C. refrigerator. The appropriate amount of NS4A-2 to 8.3 mM in assay buffer was added to equal the volume of NS3 in step 2.1.1 (conversion factor −3.8 mg/272 μL assay buffer). The material was transferred to an eppendorf tube and place in water bath in 4° C. refrigerator.
After equilibration to 4° C., equal volumes of NS3 and NS4A-2 solutions were combined in an eppendorf tube, mix gently with a manual pipettor, and incubate mixture for 15 minutes in the 4° C. water bath. Final concentrations in the mixture are 1.67 μM NS3, 4.15 mM NS4A-2 (2485-fold molar excess NS4A-2).
After 15 minutes at 4° C., the NS3/NS4A-2 eppendorf tube was removed and place it in a room temperature water bath for 10 minutes. NS3/NS4A-2 was aliquoted at appropriate volumes and store at −80° C. (E. coli NS3 run at 2 nM in assay, aliquot at 25 μL. BV NS3 run at 3 nM in assay, aliquot at 30 μL).
Sample compounds were dissolved to 10 mM in DMSO then diluted to 2.5 mM (1:4) in DMSO. Typically, compounds were added to an assay plate at 2.5 mM concentration, yielding upon dilution a starting concentration of 50 microM in the assay inhibition curve. Compounds were serial diluted in assay buffer to provide test solutions at lower concentrations.
The E. coli. NS3/NS4A-2 was diluted to 4 nM NS3 (1:417.5 of 1.67 μM stock−18 μL1.67 μM stock+7497 μL assay buffer). The BV NS3/NS4A-2 was diluted to 6 nM NS3 (1:278.3 of 1.67 μM stock−24 μL1.67 μM stock+6655 μL assay buffer). Using the manual multichannel pipettor, careful not to introduce bubbles into the plate, add 50 μL assay buffer to wells A01-H01 of a black Costar 96-well polypropylene storage plate.
Using the manual multichannel pipettor, careful not to introduce bubbles into the plate, add 50 μL of diluted NS3/NS4A-2 from step 2.2.6 to wells A02-H12 of plate in step 2.2.7. Using the manual multichannel pipettor, careful not to introduce bubbles into the plate, transfer 25 μL of the wells in drug dilution plate in step 2.2.5 to corresponding wells in assay plate in step 2.2.8. Change tips on multichannel pipettor for each row of compounds transferred. Using the manual multichannel pipettor, careful not to introduce bubbles into the plate, mix the wells from the assay plate in step 2.2.9 by aspirating and dispensing 35 μL of the 75 μL in each well five times. Change tips on multichannel pipettor for each row of wells mixed. Cover plate with a polystyrene plate lid and pre-incubate the plate from step 2.2.10 containing NS3 protease and sample compounds 10 minutes at room temperature. While plate from step 2.2.11 is pre-incubating, dilute RETS1 substrate in a 15 mL polypropylene centrifuge tube. Dilute RETS1 substrate to 8 μM (1:80.75 of 646 μM stock−65 μL 646 μM stock+5184 μL assay buffer).
After the plate in step is done pre-incubating, and using the manual multichannel, add 25 μL of substrate to all wells on the plate. Quickly mix the plate as in step 2.2.10, mixing 65 μL of the 100 μL in the wells.
Read the plate in kinetic mode on the Molecular Devices SpectraMax Gemini XS plate reader. Reader settings: Read time: 30 minutes, Interval: 36 seconds, Reads: 51, Excitation λ: 335 nm, Emission λ: 495 nm, cutoff: 475 nm, Automix: off, Calibrate: once, PMT: high, Reads/well: 6, Vmax pts: 21 or 28/51 depending on length of linearity of reaction
IC50s are determined using a four parameter curve fit equation, and converted to Ki's using the following Km's: • Full-length E. coli NS3−2.03 μM • Full-length BV NS3−1.74 μM • where Ki=IC50/(1+[S]/Km)) • Quantitation by ELISA of the Selectable Marker Protein, Neomycin Phosphotransferase II (NPTII) in the HCV Sub-Genomic Replicon, GS4.3

[3] = recombinant full-length NS3/NS4A-2, RETS1 substrate, kinetic fluorescence read, read-out: NS3-NS4 IC50

Row | Compound | EC50 ([1]; Hepatitis C virus, Huh-7) [nM] | IC50 [2, 3] [nM] | IC50 [2] [nM] | EC50 [1] [nM]
1 | C=C[C@@H]1C[C@]1(NC(=O)C1Cc2cc(Oc3cccc(Cl)c3)ccc2CN1C(=O)[C@@H](Nc1cccc(C(C)(C)C)c1)C(C)C)C(=O)NS(=O)(=O)C1CC1 (stereo partly drawn) [Compound 13, 2-((S)-2-(3-tert-butylphenylamino)-3-methylbutanoyl)-6-(3-chlorophenoxy)-N-((1R,2S)-1-(cyclopropylsulfonylcarbamoyl)-2-vinylcyclopropyl)-1,2,3,4-tetrahydroisoquinoline-3-carboxamide] | 10000 to 50000 | < 100 |  | 
2 | CC[C@@H]1C[C@]1(NC(=O)[C@@H]1C[C@@H](OC(=O)N2Cc3cccc(Cl)c3C2)CN1C(=O)[C@@H](Nc1cccc(C(F)(F)F)c1)C(C)(C)C)C(=O)NS(=O)(=O)C1(C)CC1 [Compound 81] | < 100 |  | < 100 | 
3 | C=C[C@@H]1C[C@]1(NC(=O)[C@@H]1C[C@@H](OC(=O)N2Cc3cccc(F)c3C2)CN1C(=O)[C@@H](Nc1ccc(F)nc1)C(C)C)C(=O)NS(=O)(=O)C1CC1 [Compound 39, [(3R,5S)-5-((1R,2S)-1-(cyclopropylsulfonylcarbamoyl)-2-vinylcyclopropylcarbamoyl)-1-((S)-2-(6-fluoropyridin-3-ylamino)-3-methylbutanoyl)pyrrolidin-3-yl]4-fluoroisoindoline-2-carboxylate] | 100 to 1000 | < 100 |  | 
4 | CC[C@@H]1C[C@]1(NC(=O)[C@@H]1C[C@@H](Oc2nc3ccccc3s2)CN1C(=O)[C@@H](Nc1cccc(C(F)(F)F)c1)C(C)(C)C)C(=O)NS(=O)(=O)C1CC1 [Compound 69] | < 100 | < 100 |  | 
5 | [(3R,5S)-5-(((1R,2R)-1-(Cyclopropylsulfonylcarbamoyl)-2-ethylcyclopropyl)carbamoyl)-1-((S)-2-(5-isopropylthiazol-2-ylamino)-3-methylbutanoyl)pyrrolidin-3-yl]4-chloroisoindoline-2-carboxylate [Compound 67] |  | < 100 |  | < 100
6 | CC[C@@H]1CC1(NC(=O)[C@@H]1C[C@@H](OC(=O)N2Cc3cccc(Cl)c3C2)CN1C(=O)[C@@H](Nc1cccnc1)C(C)(C)C)C(=O)NS(=O)(=O)C1CC1 (stereo partly shown) [Compound 74] | < 100 | < 100 |  | 
7 | CC[C@@H]1C[C@]1(NC(=O)[C@@H]1C[C@@H](OC(=O)N2Cc3cccc(F)c3C2)CN1C(=O)[C@@H](Nc1cncc(C(F)(F)F)c1)C(C)(C)C)C(=O)NS(=O)(=O)C1CC1 [Compound 57, [(3R,5S)-5-((1R,2R)-1-(cyclopropylsulfonylcarbamoyl)-2-ethylcyclopropylcarbamoyl)-1-((S)-3,3-dimethyl-2-(5-(trifluoromethyl)pyridin-3-ylamino)butanoyl)pyrrolidin-3-yl]4-fluoroisoindoline-2-carboxylate] | < 100 | < 100 |  | 
8 | CC[C@@H]1C[C@]1(NC(=O)[C@@H]1C[C@@H](OC(=O)N2Cc3cccc(Cl)c3C2)CN1C(=O)[C@@H](Nc1cncc(C(F)(F)F)c1)C(C)(C)C)C(=O)NS(=O)(=O)C1CC1 [Compound 58, [(3R,5S)-5-((1R,2R)-1-(cyclopropylsulfonylcarbamoyl)-2-ethylcyclopropylcarbamoyl)-1-((S)-3,3-dimethyl-2-(5-(trifluoromethyl)pyridin-3-ylamino)butanoyl)pyrrolidin-3-yl]4-chloroisoindoline-2-carboxylate] | < 100 | < 100 |  | 
9 | C=CCCCCC[C@H](Nc1ccc(F)cc1)C(=O)N1C[C@H](OC(=O)N2Cc3cccc(F)c3C2)C[C@H]1C(=O)N[C@]1(C(=O)NS(=O)(=O)C2CC2)C[C@H]1C=C [Compound 35, [(3R,5S)-5-((1R,2S)-1-(cyclopropylsulfonylcarbamoyl)-2-vinylcyclopropylcarbamoyl)-1-((S)-2-(4-fluorophenylamino)non-8-enoyl)pyrrolidin-3-yl]4-floroisoindoline-2-carboxylate] | 1000 to 10000 | < 100 |  | 
10 | [(3R,5S)-5-(((1R,2S)-1-(cyclopropylsulfonylcarbamoyl)-2-vinylcyclopropyl)carbamoyl)-1-((S)-2-cyclohexyl-2-(5-ethylthiazol-2-ylamino)acetyl)pyrrolidin-3-yl]4-chloroisoindoline-2-carboxylate [Compound 62] |  | < 100 |  | < 100
11 | C=C[C@@H]1C[C@]1(NC(=O)[C@@H]1C[C@@H](OC(=O)N2Cc3cccc(F)c3C2)CN1C(=O)[C@@H](Nc1cccc(C(F)(F)F)c1)C(C)(C)C)C(=O)NS(=O)(=O)C1CC1 [Compound 43, [(3R,5S)-5-((1R,2S)-1-(cyclopropylsulfonylcarbamoyl)-2-vinylcyclopropylcarbamoyl)-1-((S)-3,3-dimethyl-2-(3-(trifluoromethyl)phenylamino)butanoyl)pyrrolidin-3-yl]4-fluoroisoindoline-2-carboxylate] | < 100 | < 100 |  | 

From US7932277B2, “Peptide inhibitors of hepatitis C virus replication” (InterMune, Inc., priority 2007, dated 2011)
